Read-outs that look alike come from different tables or passages of the source.
What was measured:
[1] = tested on: human liver cancer cell HepG2; experiment: CCK-8 cell proliferation inhibition, HepG2; assay type: cell-based; settings: read-out: IC50 HepG2
Protocol: (§1) Take more than 90% of live cells for experiments. Cell proliferation inhibition test uses EnoGeneCell™ Counting Kit-8 (CCK-8) cell viability detection kit. Cells are digested and counted to make a cell suspension with a concentration of 1×10^5 cells/mL, 100 μL of cell suspension (1×10^4 cells per well) was added to each well of a 96-well plate; Incubate in a 5% CO2 incubator for 24 hours; add 100 μL of the corresponding drug-containing culture medium to each well, and set a negative control group, a vehicle control group, and a positive control group, with 5 replicates in each group; place the 96-well plate at 37° C.

sarcoma S180 = experiment: Tumor inhibition rate on sarcoma S180 mouse transplantation tumor; assay type: in vivo, mice; settings: for tumor observation: 8th day after administration; for Inhibition rate (tumor weight): dose 25 mg/kg, d0-d12 7 times, sacrifice day 14
Text: After 1 week of adaptation, the mice were inoculated subcutaneously with sarcoma S180 tumor tissue. After the tumor grew 100-300 mm3, the animals were randomly divided into groups.

[2] = tested on: human gastric cancer cell MGC-803; experiment: CCK-8 cell proliferation inhibition, MGC-803; assay type: cell-based; settings: read-out: IC50 MGC803
Protocol: as §1

[3] = tested on: human cervical cancer cell HeLa; experiment: CCK-8 cell proliferation inhibition, HeLa; assay type: cell-based
Protocol: as §1

[4] = tested on: human gastric cancer cell MKN45; experiment: CCK-8 cell proliferation inhibition, MKN45; assay type: cell-based; settings: read-out: IC50 MKN45
Protocol: as §1

[5] = Acute toxicity test of single intragastric administration of mice; settings: both sexes, Kunming, mouse, in vivo, po, 14 days observation
Protocol: Kunming mice (body weight: 17-22 g, male and female), randomly divided according to body weight. […] The doses were 150, 130, 120, 110, 100, 90, 80, 70, 60, 50, 40, 30 mg/kg by single intragastric administration, 0.25 h, 0.5 h, 1 h, 2 h after administration Observe once every 4 h, 24 h, and then record the mortality, then observe it once a day, record the mortality for 14 days, and sacrifice the undead mice on the 15th day for pathological dissection.

[6] = tested on: human lung cancer cell A549; experiment: CCK-8 cell proliferation inhibition, A549; assay type: cell-based
Protocol: as §1

Tubulin = Tubulin polymerization activity test; assay type: biochemical; settings: tubulin 4.8 mg/ml, 37° C., 340 nm; read-out: IC50 (Table 3, tubulin polymerization test)
Protocol: Tubulin (4.8 mg/ml) protein was mixed with the test compound in a PEM buffer (100 mM PIPES, 1 mM MgCl2 and 1 mM EGTA) containing 1 mM GTP and 5% glycerol. A SPECTRA MAX 190 (Molecular Device) spectrophotometer was used to monitor the microtubule polymerization at 37° C. by light scattering at 340 nm, and the microtubule polymerization was calculated from the absorbance value. Each sample was tested three times at ten different concentrations.

[7] = tested on: human colon cancer cell HCT-116; experiment: CCK-8 cell proliferation inhibition, HCT-116; assay type: cell-based
Protocol: as §1

Arylsulfatase = Arylsulfatase activity assay in vitro; assay type: biochemical; settings: p-nitrophenyl sulfate substrate, 405 nm; read-out: IC50 sulfatase
Protocol: Weigh an appropriate amount of the test compound and dissolve it in dimethyl sulfoxide. Dilute it with Tris-HCl buffer for 2, 5, 10, 20, 50, 100, 200, 500, 1000, 2000, 5000, and 10,000 times. Add another dilution gradient to the sample. Arylsulfatase and potassium p-nitrophenyl sulfate are directly dissolved in Tris-HCl buffer. 40 μL of the test compound, 50 μL of arylsulfatase and 50 μL of potassium p-nitrobenzene sulfate were added to a 96-well plate for reaction. A blank control without enzymes and a standard control without test compounds are used. The volume is made up with Tris-HCl buffer. 405 nm detection in the microplate reader, each sample is measured for 40 times, and the interval is 30 s. The representative time node within the time period with good linearity of the absorbance value are selected for data analysis. The measured absorbance value are subtracted from the background value of the blank control and the initial value when the reaction time are 0. For comparison, calculate the inhibition rate at different concentrations, and use the built-in forecast function of excel to predict the IC50 value.

[8] = Homo sapiens, HepG2, 72 h, CCK-8, 72 h
[9] = Homo sapiens, HepG2, running text
[10] = Homo sapiens, HeLa, 72 h, CCK-8, 72 h, read-out: IC50 Hela
[11] = Homo sapiens, HeLa, read-out: IC50 HeLa
[12] = A549, CCK-8, 72 h, read-out: IC50 A549
[13] = Homo sapiens, HCT-116, 72 h, CCK-8, 72 h, read-out: IC50 HTC116
[14] = Homo sapiens, HCT-116, running text, read-out: IC50 HCT-116

| Structure (SMILES) | IC50 [1, 8] [nM] | IC50 [1, 9] [nM] | tumor observation (sarcoma S180) | Inhibition rate (tumor weight) (sarcoma S180) [%] | IC50 ([2]; MGC-803, 72 h, CCK-8, 72 h) [nM] | IC50 ([2]; MGC-803, running text) [nM] | IC50 [3, 10] [nM] | IC50 [3, 11] [nM] | IC50 ([4]; MKN-45, 72 h, CCK-8, 72 h) [nM] | IC50 ([4]; MKN-45, running text) [nM] | LD50 at 14 days [5] [mg/kg] | IC50 [6, 12] [nM] | IC50 ([6]; A549, read-out: IC50 A549) [nM] | IC50 (Tubulin) [nM] | IC50 [7, 13] [nM] | IC50 [7, 14] [nM] | IC50 (Arylsulfatase) [nM] | IC50 ([1]; listed as (Z)-3,4,5-trimethoxy-4′-ethoxy-3′-aminosulfamatestilbene) [nM] | IC50 ([3]; listed as (Z)-3,4,5-trimethoxy-4′-ethoxy-3′-aminosulfamatestilbene, read-out: IC50 HeLa) [nM] | IC50 ([7]; listed as (Z)-3,4,5-trimethoxy-4′-ethoxy-3′-aminosulfamatestilbene, read-out: IC50 HCT-116) [nM] |
| --- | --- | --- | --- | --- | --- | --- | --- | --- | --- | --- | --- | --- | --- | --- | --- | --- | --- | --- | --- | --- |
| COc1ccc(/C=C\c2cc(OC)c(OC)c(OC)c2)cc1OS(N)(=O)=O [Compound A1-1, (Z)-3,4,5-trimethoxy-4′-methoxy-3′-sulfamate stilbene] | 335 | < 1000 | shrinking trend | 42 | 298 | < 600 | 458 | 340 | 599 | < 600 | 106 | 481 | < 500 | 6600 | 222 | 222 | 6160 | – | – | – |
| CCOc1ccc(/C=C\c2cc(OC)c(OC)c(OC)c2)cc1OS(N)(=O)=O [Compound A2-1, (Z)-3,4,5-trimethoxy-4′-ethoxy-3′-sulfamate stilbene] | 412 | < 1000 | shrinking trend | 40 | 267 | < 500 | 480 | 480 | 325 | < 500 | 101 | 229 | < 500 | – | 446 | 446 | – | < 500 | < 500 | < 500 |

— US20200163913A1 (Shanghai Huali Biomedical Co., Ltd., priority 2017, published 2020)
